{"source": "patent US20220387604A1", "about": "“SELECTIVE DUAL HISTONE DEACETYLASE 6/8 (HDAC6/8) DEGRADERS AND METHODS OF USE THEREOF” (DANA-FARBER CANCER INSTITUTE, INC., priority 2019, published 2022)", "format_in_all_cases": "biochemical", "key": {"HDAC2": {"target": "T1, HDAC2 (Homo sapiens, UniProt Q92769)", "T1 construct": "purchased Reaction Biology", "T1 sequence (Q92769 whole entry, canonical isoform)": "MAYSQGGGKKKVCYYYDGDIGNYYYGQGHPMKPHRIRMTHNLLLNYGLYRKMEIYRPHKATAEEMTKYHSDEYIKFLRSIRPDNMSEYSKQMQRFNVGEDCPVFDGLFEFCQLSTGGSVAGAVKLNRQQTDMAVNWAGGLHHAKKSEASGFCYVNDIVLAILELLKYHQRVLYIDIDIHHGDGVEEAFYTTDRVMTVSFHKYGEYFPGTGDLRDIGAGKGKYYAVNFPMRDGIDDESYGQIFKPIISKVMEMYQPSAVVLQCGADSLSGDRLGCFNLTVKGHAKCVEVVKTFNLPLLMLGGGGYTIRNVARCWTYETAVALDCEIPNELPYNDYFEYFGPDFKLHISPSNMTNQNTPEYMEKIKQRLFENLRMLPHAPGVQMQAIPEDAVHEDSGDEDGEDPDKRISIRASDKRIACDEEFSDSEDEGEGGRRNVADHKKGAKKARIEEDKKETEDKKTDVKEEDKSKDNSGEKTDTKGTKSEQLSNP", "assay": "HDAC enzymatic assay (Reaction Biology), HDAC2", "protocol": "(§1) Compound 1 was tested in an enzymatic assay from Reaction Biology® against 10 HDAC isoforms. The IC50 values were derived from a 10-dose response curve.\n(§2) Base Reaction buffer: 50 mM Tris-HCl, pH8.0, 137 mM NaCl, 2.7 mM KCl, and 1 mM MgCl2, Add fresh: 1 mg/ml BSA, 1% DMSO\nFluorogenic HDAC General Substrate (HDAC1, HDAC2, HDAC3, HDAC6, HDAC10, and HDAC11): 50 μM, Arg-His-Lys-Lys(Ac)-AMC\n(§3) 1. Delivered 2× enzyme in wells of reaction plate except in the control wells and added buffer to control wells. 2. Delivered compounds in 100% DMSO into the enzyme mixture by Acoustic technology (Echo550; nanoliter range). Spin down and pre-incubation. 3. Delivered 2× Substrate Mixture (Fluorogenic HDAC Substrate and co-factor if applicable) in all reaction wells to initiate the reaction. Spin and shake. 4. Incubated for 30 min for Class 2A, 1 h for HDAC1, 2, 3, and 6, and 2 h for the rest of HDAC isoforms and SIRTs at 30° C. with seal.\n(§4) 5. Added Developer with Trichostatin A (or Nicotinamide for SIRTs) to stop the reaction and to generate fluorescent color. 6. The fluorescence that was generated was detected with excitation (Ex) at […] and emission (Em) at 460 nM by the EnVision Multilabel Plate Reader (PerkinElmer®, Santa Clara, Calif., USA).\n(§5) IC50 values were derived from a 10-dose response curve."}, "HDAC8": {"target": "T2, HDAC8 (Homo sapiens, UniProt Q9BY41)", "T2 construct": "purchased Reaction Biology", "T2 sequence (Q9BY41 1-377)": "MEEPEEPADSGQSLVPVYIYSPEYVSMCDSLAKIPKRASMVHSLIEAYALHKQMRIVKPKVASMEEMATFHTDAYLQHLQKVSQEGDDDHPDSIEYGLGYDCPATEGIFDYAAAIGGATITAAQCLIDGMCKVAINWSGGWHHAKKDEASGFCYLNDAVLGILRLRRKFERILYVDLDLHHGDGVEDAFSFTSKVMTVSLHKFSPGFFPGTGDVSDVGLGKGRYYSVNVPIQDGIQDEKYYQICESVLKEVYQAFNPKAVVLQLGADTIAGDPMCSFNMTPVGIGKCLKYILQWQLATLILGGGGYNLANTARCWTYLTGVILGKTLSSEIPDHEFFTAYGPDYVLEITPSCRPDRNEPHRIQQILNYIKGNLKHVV", "assay": "HDAC enzymatic assay (Reaction Biology), HDAC8", "protocol": "as §1, §2\n(HDAC8 only substrate: 50 μM, Arg-His-Lys(Ac)-Lys(Ac))-AMC\nas §3, §4, §5"}, "HDAC5": {"target": "T3, HDAC5 (Homo sapiens, UniProt Q9UQL6)", "T3 construct": "purchased Reaction Biology", "T3 sequence (Q9UQL6 whole entry)": "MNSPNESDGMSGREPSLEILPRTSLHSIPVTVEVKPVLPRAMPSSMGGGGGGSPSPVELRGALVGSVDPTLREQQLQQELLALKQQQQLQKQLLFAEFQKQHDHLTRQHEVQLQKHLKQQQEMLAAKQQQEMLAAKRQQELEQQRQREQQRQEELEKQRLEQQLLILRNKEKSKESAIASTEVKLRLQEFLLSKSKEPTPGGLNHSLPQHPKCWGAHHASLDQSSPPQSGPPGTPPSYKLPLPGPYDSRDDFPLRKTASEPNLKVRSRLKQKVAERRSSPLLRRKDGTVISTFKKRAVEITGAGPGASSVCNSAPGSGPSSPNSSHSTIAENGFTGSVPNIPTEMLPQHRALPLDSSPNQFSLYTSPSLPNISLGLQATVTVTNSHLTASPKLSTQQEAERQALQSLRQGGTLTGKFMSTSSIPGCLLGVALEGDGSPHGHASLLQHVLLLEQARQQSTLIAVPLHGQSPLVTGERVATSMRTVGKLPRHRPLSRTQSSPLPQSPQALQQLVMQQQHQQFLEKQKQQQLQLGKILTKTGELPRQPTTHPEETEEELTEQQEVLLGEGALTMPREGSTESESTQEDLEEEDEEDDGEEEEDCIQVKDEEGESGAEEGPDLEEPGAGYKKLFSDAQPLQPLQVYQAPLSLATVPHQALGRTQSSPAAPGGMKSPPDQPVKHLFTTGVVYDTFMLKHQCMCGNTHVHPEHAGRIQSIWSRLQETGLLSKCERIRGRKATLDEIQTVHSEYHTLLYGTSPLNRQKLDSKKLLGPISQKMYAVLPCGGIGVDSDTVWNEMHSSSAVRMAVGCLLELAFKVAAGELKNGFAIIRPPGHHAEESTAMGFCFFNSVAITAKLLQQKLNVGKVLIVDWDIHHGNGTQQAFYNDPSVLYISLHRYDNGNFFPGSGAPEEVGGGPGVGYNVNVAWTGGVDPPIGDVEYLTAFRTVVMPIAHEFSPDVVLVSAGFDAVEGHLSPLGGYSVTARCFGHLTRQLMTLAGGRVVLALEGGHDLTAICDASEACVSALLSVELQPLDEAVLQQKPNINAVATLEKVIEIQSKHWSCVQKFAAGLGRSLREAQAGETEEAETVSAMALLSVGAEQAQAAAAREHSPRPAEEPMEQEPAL", "assay": "HDAC enzymatic assay (Reaction Biology), HDAC5", "protocol": "as §1, §2\n(§6) Class2A Substrate (HDAC4, HDAC5, HDAC7, and HDAC9): Boc-Lys(trifluoroacetyl)-AMC\nas §3, §4, §5"}, "HDAC7": {"target": "T4, HDAC7 (Homo sapiens, UniProt Q8WUI4)", "T4 construct": "purchased Reaction Biology", "T4 sequence (Q8WUI4 1-952)": "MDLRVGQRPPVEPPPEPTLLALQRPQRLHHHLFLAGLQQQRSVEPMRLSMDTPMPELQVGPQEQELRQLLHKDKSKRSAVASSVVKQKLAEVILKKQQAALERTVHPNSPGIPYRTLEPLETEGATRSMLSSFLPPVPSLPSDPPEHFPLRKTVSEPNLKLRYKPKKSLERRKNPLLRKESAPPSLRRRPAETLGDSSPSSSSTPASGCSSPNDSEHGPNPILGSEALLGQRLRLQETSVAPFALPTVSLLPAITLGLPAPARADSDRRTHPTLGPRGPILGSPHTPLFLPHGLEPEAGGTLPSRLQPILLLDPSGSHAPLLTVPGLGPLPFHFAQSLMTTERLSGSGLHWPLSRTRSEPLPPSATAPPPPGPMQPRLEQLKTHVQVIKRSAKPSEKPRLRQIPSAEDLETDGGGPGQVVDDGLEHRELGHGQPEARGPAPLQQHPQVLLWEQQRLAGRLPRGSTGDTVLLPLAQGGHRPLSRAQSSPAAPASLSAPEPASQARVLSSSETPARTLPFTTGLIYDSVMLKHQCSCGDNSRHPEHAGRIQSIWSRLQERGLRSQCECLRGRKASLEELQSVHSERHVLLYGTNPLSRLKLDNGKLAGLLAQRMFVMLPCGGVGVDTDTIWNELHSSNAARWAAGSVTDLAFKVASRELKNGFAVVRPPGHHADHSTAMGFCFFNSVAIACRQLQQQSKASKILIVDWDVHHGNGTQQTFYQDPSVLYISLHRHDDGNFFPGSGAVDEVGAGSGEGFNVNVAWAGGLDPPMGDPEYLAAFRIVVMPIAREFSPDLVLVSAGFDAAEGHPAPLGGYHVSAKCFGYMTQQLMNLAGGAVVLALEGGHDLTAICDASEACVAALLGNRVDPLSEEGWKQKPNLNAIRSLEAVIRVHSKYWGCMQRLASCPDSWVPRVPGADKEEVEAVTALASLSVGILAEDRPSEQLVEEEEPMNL", "assay": "HDAC enzymatic assay (Reaction Biology), HDAC7", "conditions": "summary of Table 1", "protocol": "as §1, §2, §6, §3, §4, §5"}}, "note": "“Also recorded” adds a separate entry of the source."}
{"smiles": "O=C(/C=C/c1ccc(CN(CCOCCOCCNc2cccc3c2C(=O)N(C2CCC(=O)NC2=O)C3=O)CCc2c[nH]c3ccccc23)cc1)NO", "note": "(stereo not shown) [Compound 1, (E)-3-(4-(((2-(1H-indol-3-yl)ethyl)(2-(2-(2-((2-(2,6-dioxopiperidin-3-yl)-1,3-dioxoisoindolin-4-yl)amino)ethoxy)ethoxy)ethyl)amino)methyl)phenyl)-N-hydroxyacrylamide]", "values": [{"measurement": "IC50", "setting": "HDAC2; 10-dose response curve, read-out: Compound IC50 (M), HDAC2", "result": "3.48e-06", "unit": "M"}, {"measurement": "inhibition of enzymatic activity of HDAC2 (in words)", "setting": "HDAC2; summary of Table 1", "result": "Moderate inhibition"}, {"measurement": "IC50", "setting": "HDAC8; 10-dose response curve, read-out: Compound IC50 (M), HDAC8", "result": "4.51e-06", "unit": "M"}, {"measurement": "inhibition of enzymatic activity of HDAC8 (in words)", "setting": "HDAC8; summary of Table 1", "result": "potently inhibited; also recorded: Moderate inhibition"}, {"measurement": "IC50", "setting": "HDAC5; 10-dose response curve, read-out: Compound IC50 (M), HDAC5", "result": "> 2e-05", "unit": "M"}, {"measurement": "inhibition of enzymatic activity of HDAC5 (in words)", "setting": "HDAC5; summary of Table 1", "result": "did not inhibit"}, {"measurement": "inhibition of enzymatic activity of HDAC7 (in words)", "setting": "HDAC7", "result": "did not inhibit"}]}
